Usually pKd stands for the negative decadic logarithm of the Kd, by convention in mol/L. A word on the pEC50: it is the negative decadic logarithm of the EC50, by convention in mol/L.

Structures are written as SMILES. pEC50, pKd: −log10 of the molar value. Calls of active or inactive are those of the source. The rule behind the calls is not given here.

The text below walks through data of ChEMBL document CHEMBL2424512, “Discovery and biophysical characterization of 2-amino-oxadiazoles as novel antagonists of PqsR, an important regulator of Pseudomonas aeruginosa virulence” (J Med Chem, 2013).

In assay [1] the target is T1, Transcriptional regulator MvfR (Pseudomonas aeruginosa PA14, UniProt A0A072ZLE6).
T1 sequence (A0A072ZLE6 whole entry): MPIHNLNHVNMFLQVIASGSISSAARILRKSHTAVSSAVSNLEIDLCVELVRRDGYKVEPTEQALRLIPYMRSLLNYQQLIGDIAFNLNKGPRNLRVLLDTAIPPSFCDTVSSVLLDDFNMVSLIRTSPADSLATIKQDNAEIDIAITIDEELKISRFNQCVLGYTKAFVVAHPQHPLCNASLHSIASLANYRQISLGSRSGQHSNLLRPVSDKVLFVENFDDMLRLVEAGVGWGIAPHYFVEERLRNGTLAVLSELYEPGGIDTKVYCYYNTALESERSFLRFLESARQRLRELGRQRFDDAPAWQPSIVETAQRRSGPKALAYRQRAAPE
The experiment in a line: Binding affinity to Pseudomonas aeruginosa PA14 biotinylated His6SUMO-tagged PqsR expressed in Eschericia coli BL21 (lamda DE3) by isothermal titration calorimetry.

Assay [2] has as its target T1, Transcriptional regulator MvfR. The experiment in a line: Binding affinity to Pseudomonas aeruginosa PA14 biotinylated His6SUMO-tagged PqsR expressed in Eschericia coli BL21 (DE3) by surface plasmon resonance spectroscopic analysis. A general note: SPR reads the build-up and loss of mass on a sensor chip optically.
For assay [3], the target named is T2, Transcriptional regulator MvfR (Pseudomonas aeruginosa PA14) (UniProt A0A072ZLE6).
T2 sequence (whole entry): T1 sequence (A0A072ZLE6 whole entry)
In words: Antagonist activity at Pseudomonas aeruginosa PA14 PqsR assessed as reduction of pyocyanin level by UHPLC-MS/MS analysis.

The target in assay [4] is T1, Transcriptional regulator MvfR. The experiment in a line: Antagonist activity at Pseudomonas aeruginosa PA14 PqsR expressed in Eschericia coli DH5-alpha assessed as inhibition of PQS-induced protein activation by beta-galactosidase reporter gene assay.
Assay [5] has the same target. In words: Antagonist activity at Pseudomonas aeruginosa PA14 PqsR expressed in pqs gene-deficient Pseudomonas aeruginosa PA14 by beta-galactosidase reporter gene assay. On the technique in general: In a reporter assay the amount or activity of a reporter protein is the signal.
In assay [6] the test system is Pseudomonas aeruginosa. In words: Antibacterial activity against Pseudomonas aeruginosa PA14 at 250 uM after 1 to 8 hrs by spectrophotometer analysis. The assay is classed as functional, organism-based.

Take `NC(=O)c1cccc(Br)c1`: the pKd is 5.12 in assay [1] and 5.17 in assay [2].
`Nc1cccc(Br)n1`: the pKd in assay [1] was 5.00; in assay [2], 5.17.
In turn, `CC(C)(C)c1ccc(C(N)=O)cc1` showed a pKd in assay [1] of 6.05.
For `COc1cccc(-c2nnc(N)o2)c1`, the inhibition entry in assay [3] was “inactive”.
Turning to `Nc1nnc(-c2cccc(Cl)c2)o1`, the pEC50 in assay [4] was 4.57.
On to `Cc1cccc(-c2nnc(N)o2)c1`, for which, in assay [4], the negative-log EC50 (pEC50) was 4.24. Moreover, in assay [1], the pKd is 4.91.
The like results for `FC(F)(F)c1cccc(-c2nnco2)c1` were, in that order, 3.99 and 5.19.
In turn, `CCCCCCCc1[nH]c2ccccc2c(=O)c1O` had a pKd in assay [2] of 6.68.
With `Nc1nnc(-c2cccc(OC(F)(F)F)c2)o1`, in assay [4], the pEC50 is 4.33.
As for `Cc1nnc(-c2cccc(C(F)(F)F)c2)o1`, the pKd in assay [1] is 4.89.
For `FC(F)(F)c1cc(-c2cccs2)n[nH]1`, the pKd is 5.07 in assay [1] and 4.97 in assay [2].
With `NC(=O)c1ccc2ccccc2c1`, the pKd in assay [1] was 5.74; in assay [2], 6.10.
Take `CCCCCCCc1cc(=O)c2cc(C(F)(F)F)ccc2[nH]1`: the inhibition entry in assay [3] was “Active”.
In the case of `Nc1nnc(-c2cccc(Br)c2)o1`, in assay [4], the pEC50 is 5.12.
In turn, `CC(C)(C)c1cccc(-c2nnc(N)o2)c1` gave a pKd in assay [1] of 5.51.
Regarding `Nc1nnc(-c2cccc(C(F)(F)F)c2)o1`, the negative-log EC50 (pEC50) is 5.12 in assay [4] and 4.41 in assay [5]. The compound also showed a pKd in assay [1] of 5.89. The result in assay [6] was inactive.
Take `Nc1nnc(-c2ccc(Cl)cc2)s1`: the pKd is 5.43 in assay [1] and 5.35 in assay [2].
Turning to `Nc1nnc(-c2ccc(Cl)cc2)o1`, in assay [2], the pKd is 3.70.
On to `N#Cc1cccc(-c2nnc(N)o2)c1`, for which, in assay [4], the pEC50 is 4.75.
Regarding `CC(C)(C)c1ccc(C(=O)NO)cc1`, the inhibition entry in assay [3] is “Active”.
